Reference: US8828990B2, “N-7 substituted purine and pyrazolopyrimine compounds, compositions and methods of use” (priority 2009, dated 2014)
Read-outs that look alike come from different tables or passages of the source.

Tests used:
[1] = biological target: T1, mTOR kinase (mTOR(1360-2549)+GBL) (Homo sapiens, UniProt P42345); assay: In vitro mTOR kinase assay (TR-FRET); format: biochemical; conditions: read-out: activity level (Ki) in the mTOR kinase assay
T1 construct: mTOR(1360-2549)+GBL, prepared in-house; made in house
Procedure: (§1) The reaction is stopped by an addition of a Terbium-labeled phospho-specific antibody, e.g., Tb-labeled anti-p4E-BP1 T37/T46, (Invitrogen, product #PR8835A), EDTA, and TR-FRET buffer solution (Invitrogen, Product #PR3756B). Product formation is detected by way of time-resolved fluorescence resonance energy transfer (TR-FRET), which occurs when the phosphorylated substrate and labeled antibody are in close proximity due to phospho-specific binding. Enzymatic activity is measured as an increase in TR-FRET signal using a Perkin Elmer Envision plate reader.
Compound activity is tested in 10 point dose curves starting at the highest final concentration of 10 uM. They are serially diluted in 100% DMSO prior to further dilution with assay buffer. […] 8 μL of solution containing 2 nM Tb-anti-p4E-BP1 antibody & 10 mM EDTA diluted TR-FRET buffer is then added and incubated for 30 minutes to stop the reaction. The plate is scanned with the Envision plate reader. Ki values are calculated in Assay Explorer using the Morrison ATP-competitive tight binding equation for Ki apparent determination.

PC3 cells = assay: In vitro cell proliferation assay; format: cell-based; conditions: Homo sapiens
Procedure: Efficacy of Formula I compounds were measured by a cell proliferation assay employing the following protocol: 1. An aliquot of 20 μl of cell culture containing about 10^3 cells (PC3 or MDAMB361.1) in medium was deposited in each well of a 384-well, opaque-walled plate. 2. Control wells were prepared containing medium and without cells; Cells were allowed to settle overnight. 3. The compound was added to the experimental wells and incubated for 3 days. 4. The plates were equilibrated to room temperature for approximately 30 minutes. 5. A volume of CellTiter-Glo Reagent equal to the volume of cell culture medium present in each well was added. 6. The contents were mixed for 2 minutes on an orbital shaker to induce cell lysis. 7. The plate was incubated at room temperature for 20 minutes to stabilize the luminescence signal. […] Luminescence was recorded and reported in graphs as RLU=relative luminescence units. Alternatively, cells were seeded at optimal density in a 96 well plate and incubated for 4 days in the presence of test compound. […] IC50 values were calculated using a sigmoidal dose response curve fit.

[2] = test system: AKT serine-473 phosphorylation in EGF-stimulated PC-3 cells; assay: In vitro phospho-AKT serine 473 cellular assay; format: cell-based; conditions: Homo sapiens
Procedure: The PC-3 cell line is maintained in RPMI1640 media supplemented with 10% FBS, 2 mM Glutamine, and 10 mM HEPES pH 7.4 at 37° C. in a 5% CO2 humidified incubator.
Cells are seeded in 384-well plates at 7,000 cells/well in […] growth media. After 24 hours, growth media is removed and replaced with RPMI1640 containing no FBS. Cells are treated with 10 concentrations of test compounds or DMSO alone for controls (final DMSO concentration 0.5%) and incubated at 37° C. for 30 minutes. Cells are then stimulated for 10 minutes with 100 ng/ml EGF (final concentration). One column of controls is not stimulated with EGF to observe the signal ratio between stimulated and non-stimulated cells. After 10 minutes, compounds and stimulation media are removed and replaced with 25 μl lysis buffer containing protease inhibitors and phosphatase inhibitors. This buffer contains detergent to bring about cellular disruption. […] Following the transfer of lysate to the MSD plate, AKT in the lysate is captured on the coated antibody by incubation on a shaker at 4° C. for 16 hours. Following the capture step the plate is washed and then incubated for two hours with an antibody to S473 phosphorylated AKT which is conjugated with a Sulfo-Tag. This tag gives a signal when in proximity to the electrode on the base of the MSD plate. Binding the tagged antibody to the captured protein allow detection on a MSD reader.
EC50 values are calculated using MDL Assay Explorer 3.0.1.8 fitting a sigmoidal curve with a variable slope.

PI3K-alpha = biological target: T2, PI3K-alpha (Homo sapiens, UniProt P42336); format: biochemical
T2 construct: purchased Upstate Cell Signaling Solutions
Procedure: as §1, with “The kinase activity of mTOR enzyme is assessed by incubating purified recombinant enzyme (mTOR(1360-2549)+GBL, prepared in-house) in a reaction mixture containing ATP, MnCl2, and a fluorescently labeled mTOR substrate, e.g., GFP-4E-BP1 (Invitrogen, product #PR8808A). The” for “The”, “reader. The assay is performed in a 384-well Proxiplate Plus (Perkin Elmer. Product #6008269) using the following protocol:” for “reader.”
Compound activity is tested in 10 point dose curves starting at the highest final concentration of 10 uM. They are serially diluted in 100% DMSO prior to further dilution with assay buffer. The reaction mixture (8 uls) containing 0.25 nM mTOR+GBL enzyme, 400 nM GFP-4E-BP1, 8 uM ATP, 50 mM Hepes pH 7.5, 0.01% Tween 20, 10 mM MnCl2, 1 mM EGTA, 1 mM DTT, 1% DMSO (+/−compound) is incubated at room temperature for 30 minutes. 8 μL of solution containing 2 nM Tb-anti-p4E-BP1 antibody & 10 mM EDTA diluted TR-FRET buffer is then added and incubated for 30 minutes to stop the reaction. The plate is scanned with the Envision plate reader. Ki values are calculated in Assay Explorer using the Morrison ATP-competitive tight binding equation for Ki apparent determination.
Binding Assays: Initial polarization experiments were performed on an Analyst HT 96-384 (Molecular Devices Corp, Sunnyvale, Calif.). […] After an incubation time of 30 minutes at room temperature, the reactions were stopped by the addition of GRP-1 and PIP3-TAMRA probe (Echelon-Inc., Salt Lake City, Utah) 100 nM and 5 nM final concentrations respectively. […] This experiment also establishes the appropriate protein concentration to use in subsequent competition experiments with inhibitors.
After an incubation time of 30 minutes at room temperature, the reactions were stopped by the addition of GRP-1 and PIP3-TAMRA probe (Echelon-Inc., Salt Lake City, Utah) 100 nM and 5 nM final concentrations respectively.

[3] = PC-3, with PC3 cells, read-out: IC50 value, cell proliferation
[4] = PC-3 cells stimulated with EGF, read-out: EC50 activity level, inhibition of S473 AKT phosphorylation
[5] = recombinant mTOR+GBL, 8 uM ATP, Ki apparent
[6] = PC-3, read-out: IC50 value, cell proliferation

T1 sequence (P42345 1360-2549): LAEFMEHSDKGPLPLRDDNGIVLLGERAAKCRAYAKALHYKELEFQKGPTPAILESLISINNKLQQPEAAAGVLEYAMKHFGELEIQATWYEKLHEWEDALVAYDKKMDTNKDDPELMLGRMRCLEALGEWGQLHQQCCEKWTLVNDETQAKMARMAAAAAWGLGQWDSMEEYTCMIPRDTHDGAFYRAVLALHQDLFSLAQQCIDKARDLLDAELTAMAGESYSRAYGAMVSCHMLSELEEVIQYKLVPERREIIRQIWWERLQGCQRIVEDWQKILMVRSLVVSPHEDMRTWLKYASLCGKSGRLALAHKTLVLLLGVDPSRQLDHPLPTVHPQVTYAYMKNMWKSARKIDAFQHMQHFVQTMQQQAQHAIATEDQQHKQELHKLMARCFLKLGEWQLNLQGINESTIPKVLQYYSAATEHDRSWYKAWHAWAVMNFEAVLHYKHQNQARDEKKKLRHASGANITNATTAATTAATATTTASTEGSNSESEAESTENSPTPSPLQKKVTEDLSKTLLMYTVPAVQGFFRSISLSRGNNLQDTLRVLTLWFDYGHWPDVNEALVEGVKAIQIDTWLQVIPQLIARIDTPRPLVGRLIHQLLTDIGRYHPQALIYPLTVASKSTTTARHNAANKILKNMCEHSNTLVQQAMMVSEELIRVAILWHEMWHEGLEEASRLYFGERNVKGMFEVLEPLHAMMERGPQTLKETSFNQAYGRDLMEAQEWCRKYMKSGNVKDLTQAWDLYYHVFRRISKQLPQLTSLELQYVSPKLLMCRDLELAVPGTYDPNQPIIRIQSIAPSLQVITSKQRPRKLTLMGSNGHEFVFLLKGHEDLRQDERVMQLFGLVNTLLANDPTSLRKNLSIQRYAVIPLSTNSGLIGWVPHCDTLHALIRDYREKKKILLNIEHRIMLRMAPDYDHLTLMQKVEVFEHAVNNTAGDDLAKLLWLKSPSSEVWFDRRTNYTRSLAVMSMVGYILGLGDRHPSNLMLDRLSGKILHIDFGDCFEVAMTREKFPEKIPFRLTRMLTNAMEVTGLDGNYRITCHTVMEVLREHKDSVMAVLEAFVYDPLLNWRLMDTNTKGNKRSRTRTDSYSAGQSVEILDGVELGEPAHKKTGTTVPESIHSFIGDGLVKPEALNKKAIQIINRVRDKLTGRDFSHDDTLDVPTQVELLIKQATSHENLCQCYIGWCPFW
T1 sequence (Q9BVC4 whole entry partner): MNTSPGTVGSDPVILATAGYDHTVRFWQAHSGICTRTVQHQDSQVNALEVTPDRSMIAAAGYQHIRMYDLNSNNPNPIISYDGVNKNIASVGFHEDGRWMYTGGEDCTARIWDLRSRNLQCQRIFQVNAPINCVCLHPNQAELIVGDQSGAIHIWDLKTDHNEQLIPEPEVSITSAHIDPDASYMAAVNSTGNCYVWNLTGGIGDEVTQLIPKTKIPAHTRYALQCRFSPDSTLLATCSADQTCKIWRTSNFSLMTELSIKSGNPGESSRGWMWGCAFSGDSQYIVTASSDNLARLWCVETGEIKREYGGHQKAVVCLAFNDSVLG
T2 sequence (P42336 whole entry, species assumed): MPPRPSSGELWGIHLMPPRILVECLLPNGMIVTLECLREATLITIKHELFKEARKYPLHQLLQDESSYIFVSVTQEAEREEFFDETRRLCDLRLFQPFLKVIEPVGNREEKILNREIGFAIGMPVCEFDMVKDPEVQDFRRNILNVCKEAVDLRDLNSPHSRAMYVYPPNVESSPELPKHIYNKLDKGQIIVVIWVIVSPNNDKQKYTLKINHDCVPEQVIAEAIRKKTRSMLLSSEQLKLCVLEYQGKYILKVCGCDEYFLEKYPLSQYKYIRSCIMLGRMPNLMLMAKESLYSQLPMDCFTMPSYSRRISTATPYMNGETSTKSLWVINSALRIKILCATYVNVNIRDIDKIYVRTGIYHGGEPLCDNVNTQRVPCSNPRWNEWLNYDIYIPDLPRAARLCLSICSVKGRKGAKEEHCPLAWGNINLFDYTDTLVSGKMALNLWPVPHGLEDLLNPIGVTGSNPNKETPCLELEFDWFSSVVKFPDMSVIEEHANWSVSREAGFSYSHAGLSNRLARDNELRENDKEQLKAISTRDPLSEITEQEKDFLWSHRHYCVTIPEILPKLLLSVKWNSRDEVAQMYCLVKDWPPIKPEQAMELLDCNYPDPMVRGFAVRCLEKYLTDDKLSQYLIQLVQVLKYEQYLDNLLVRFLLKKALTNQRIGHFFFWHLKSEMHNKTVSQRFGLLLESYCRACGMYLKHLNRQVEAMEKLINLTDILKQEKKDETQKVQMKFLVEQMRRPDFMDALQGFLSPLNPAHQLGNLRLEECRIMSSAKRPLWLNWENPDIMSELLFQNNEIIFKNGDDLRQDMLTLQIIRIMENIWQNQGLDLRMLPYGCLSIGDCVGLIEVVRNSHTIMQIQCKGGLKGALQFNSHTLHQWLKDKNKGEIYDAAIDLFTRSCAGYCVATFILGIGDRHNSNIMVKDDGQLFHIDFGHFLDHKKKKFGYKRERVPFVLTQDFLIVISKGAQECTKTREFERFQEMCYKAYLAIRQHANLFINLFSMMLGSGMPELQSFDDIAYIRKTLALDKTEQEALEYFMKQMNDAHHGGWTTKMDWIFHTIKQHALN
T2 sequence (P27986 whole entry partner, species assumed): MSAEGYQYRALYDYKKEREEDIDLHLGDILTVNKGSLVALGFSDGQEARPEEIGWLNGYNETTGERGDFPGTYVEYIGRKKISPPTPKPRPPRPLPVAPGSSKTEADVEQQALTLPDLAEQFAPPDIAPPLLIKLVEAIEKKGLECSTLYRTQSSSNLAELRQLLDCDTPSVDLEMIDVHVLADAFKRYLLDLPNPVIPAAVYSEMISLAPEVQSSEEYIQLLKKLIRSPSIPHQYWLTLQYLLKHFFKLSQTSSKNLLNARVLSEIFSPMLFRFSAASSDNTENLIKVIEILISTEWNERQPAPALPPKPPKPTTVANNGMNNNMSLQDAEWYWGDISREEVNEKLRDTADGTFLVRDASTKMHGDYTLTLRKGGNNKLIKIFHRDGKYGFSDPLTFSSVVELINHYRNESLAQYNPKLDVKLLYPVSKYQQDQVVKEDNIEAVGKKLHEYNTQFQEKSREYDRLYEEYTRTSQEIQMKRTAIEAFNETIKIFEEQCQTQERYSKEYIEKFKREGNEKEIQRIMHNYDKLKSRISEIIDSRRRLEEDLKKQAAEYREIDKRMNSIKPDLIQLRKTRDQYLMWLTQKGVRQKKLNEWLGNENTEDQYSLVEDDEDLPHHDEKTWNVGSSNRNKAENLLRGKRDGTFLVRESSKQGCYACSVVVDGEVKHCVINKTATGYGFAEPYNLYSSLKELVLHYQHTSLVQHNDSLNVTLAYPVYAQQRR

Structure (SMILES)	Ki [1] [nM]	IC50 (PC3 cells; [3]) [nM]	Ki [1, 5] [nM]	also measured
CCNC(=O)Nc1ccc(-c2nc(N3CCOC[C@@H]3CC)c3c(cnn3C)n2)cc1 [Compound 111, (S)-1-ethyl-3-(4-(7-(3-ethylmorpholino)-1-methyl-1H-pyrazolo[4,3-d]pyrimidin-5-yl)phenyl)urea]	28	2900	–	–
CCNC(=O)Nc1ccc(-c2nc(N3CCOC[C@@H]3C)c3c(ncn3CC)n2)cc1 [Compound 106, (S)-1-ethyl-3-(4-(7-ethyl-6-(3-methylmorpholino)-7H-purin-2-yl)phenyl)urea]	–	–	40	EC50 [2, 4]: 511 nM; selectivity for mTOR kinase over related PI3 kinase (PI3K-alpha) (PI3K-alpha): 250 ×; IC50 (PC3 cells; [6]): 4200 nM
CCNC(=O)Nc1ccc(-c2nc(N3CCOC[C@H]3C)c3c(ncn3C)n2)cc1 [Compound 103, (R)-1-ethyl-3-(4-(7-methyl-6-(3-methylmorpholino)-7H-purin-2-yl)phenyl)urea]	–	10000	–	–
CCNC(=O)Nc1ccc(-c2nc(N3CCOC[C@@H]3C)c3ncn(CC)c3n2)cc1 [(S)-1-ethyl-3-(4-(9-ethyl-6-(3-methylmorpholino)-9H-purin-2-yl)phenyl)urea, reference compound]	–	–	–	selectivity for mTOR kinase over related PI3 kinase (PI3K-alpha) (PI3K-alpha): 45 ×
CCNC(=O)Nc1ccc(-c2nc(N3CCOC[C@@H]3CC)c3c(n2)c(C)nn3C)cc1 [Compound 112, (S)-1-ethyl-3-(4-(7-(3-ethylmorpholino)-1,3-dimethyl-1H-pyrazolo[4,3-d]pyrimidin-5-yl)phenyl)urea]	–	86	2	–
CCNC(=O)Nc1ccc(-c2nc(N3C[C@@H]4C[C@H]3CO4)c3c(cnn3C)n2)cc1 [Compound 109, 1-(4-(7-((1S,4S)-2-oxa-5-azabicyclo[2.2.1]heptan-5-yl)-1-methyl-1H-pyrazolo[4,3-d]pyrimidin-5-yl)phenyl)-3-ethylurea]	8	–	–	IC50 (PC3 cells; [6]): 399 nM
CCNC(=O)Nc1ccc(-c2nc(N3CCCOCC3)c3c(ncn3C)n2)cc1 [Compound 105, 1-ethyl-3-(4-(7-methyl-6-(1,4-oxazepan-4-yl)-7H-purin-2-yl)phenyl)urea]	–	–	121	–
CCNC(=O)Nc1ccc(-c2nc(N3CCOCC3)c3c(ncn3C)n2)cc1 [Compound 101, 1-ethyl-3-(4-(7-methyl-6-morpholino-7H-purin-2-yl)phenyl)urea]	143	–	–	–
C[C@H]1COCCN1c1nc(-c2ccc(NC(=O)NCCS(C)(=O)=O)cc2)nc2cnn(C)c12 [Compound 114, (S)-1-(4-(1-methyl-7-(3-methylmorpholino)-1H-pyrazolo[4,3-d]pyrimidin-5-yl)phenyl)-3-(2-(methylsulfonyl)ethyl)urea]	145	–	–	–
CCNC(=O)Nc1ccc(-c2nc(N3CCOC[C@@H]3C)c3c(ncn3C)n2)cc1 [Compound 102, (S)-1-ethyl-3-(4-(7-methyl-6-(3-methylmorpholino)-7H-purin-2-yl)phenyl)urea]	–	294	–	–
CCNC(=O)Nc1ccc(-c2nc(N3CCOC[C@@H]3C)c3c(cnn3C)n2)cc1 [Compound 110, (S)-1-ethyl-3-(4-(1-methyl-7-(3-methylmorpholino)-1H-pyrazolo[4,3-d]pyrimidin-5-yl)phenyl)urea]	1	–	–	selectivity for mTOR kinase over related PI3 kinase (PI3K-alpha) (PI3K-alpha): 1250 ×; IC50 (PC3 cells; [6]): 131 nM
CCNC(=O)Nc1ccc(-c2nc(N3CCOC[C@@H]3CC)c3c(ncn3C)n2)cc1 [Compound 104, (S)-1-ethyl-3-(4-(6-(3-ethylmorpholino)-7-methyl-7H-purin-2-yl)phenyl)urea]	–	737	4	EC50 ([2]; PC-3, read-out: EC50 activity level, inhibition of S473 AKT phosphorylation): 69 nM
CCCCc1nc2nc(-c3ccc(NC(=O)NCC)cc3)nc(N3CCOC[C@@H]3C)c2n1C [Compound 107, (S)-1-(4-(8-butyl-7-methyl-6-(3-methylmorpholino)-7H-purin-2-yl)phenyl)-3-ethylurea]	53	2400	–	–
CCNC(=O)Nc1ccc(-c2nc(N3CCOC[C@@H]3C)c3ncn(C)c3n2)cc1 [(S)-1-ethyl-3-(4-(9-methyl-6-(3-methylmorpholino)-9H-purin-2-yl)phenyl)urea, reference compound]	–	–	–	selectivity for mTOR kinase over related PI3 kinase (PI3K-alpha) (PI3K-alpha): 29 ×
C[C@H]1COCCN1c1nc(-c2ccc(NC(=O)NC3COC3)cc2)nc2cnn(C)c12 [Compound 113, (S)-1-(4-(1-methyl-7-(3-methylmorpholino)-1H-pyrazolo[4,3-d]pyrimidin-5-yl)phenyl)-3-(oxetan-3-yl)urea]	39	5900	–	–
CCNC(=O)Nc1ccc(-c2nc(N3CCOC[C@@H]3C)c3c(n2)nc(C(C)(C)O)n3C)cc1 [Compound 108, (S)-1-ethyl-3-(4-(8-(2-hydroxypropan-2-yl)-7-methyl-6-(3-methylmorpholino)-7H-purin-2-yl)phenyl)urea]	–	–	30	EC50 [2, 4]: 3500 nM; IC50 (PC3 cells; [6]): 8000 nM
